Patent US8178678B2, “Bis-quaternary ammonium salts and methods for modulating neuronal nicotinic acetylcholine receptors” (University of Kentucky Research Foundation, priority 2006, dated 2012)

How the values were obtained:
[1] = biological target: T1, Rat Striatal Nicotinic Receptors ([^3H]NIC binding sites; α4β2) (Rattus norvegicus, UniProt P09483+P12390); test: Inhibition of [^3H]NIC binding; conditions: full concentration effect; 3 nM [^3H]NIC; nonspecific 10 μM cytisine; rat brain membranes; read-out: [^3H]NIC binding, Ki
T1 construct: Whole brain, excluding cortex and cerebellum, was homogenized in 20 vol of ice-cold buffer; from tissue; host or cells: rat brain membranes (whole brain excluding cortex and cerebellum)
T1 sequence (P09483 31-630): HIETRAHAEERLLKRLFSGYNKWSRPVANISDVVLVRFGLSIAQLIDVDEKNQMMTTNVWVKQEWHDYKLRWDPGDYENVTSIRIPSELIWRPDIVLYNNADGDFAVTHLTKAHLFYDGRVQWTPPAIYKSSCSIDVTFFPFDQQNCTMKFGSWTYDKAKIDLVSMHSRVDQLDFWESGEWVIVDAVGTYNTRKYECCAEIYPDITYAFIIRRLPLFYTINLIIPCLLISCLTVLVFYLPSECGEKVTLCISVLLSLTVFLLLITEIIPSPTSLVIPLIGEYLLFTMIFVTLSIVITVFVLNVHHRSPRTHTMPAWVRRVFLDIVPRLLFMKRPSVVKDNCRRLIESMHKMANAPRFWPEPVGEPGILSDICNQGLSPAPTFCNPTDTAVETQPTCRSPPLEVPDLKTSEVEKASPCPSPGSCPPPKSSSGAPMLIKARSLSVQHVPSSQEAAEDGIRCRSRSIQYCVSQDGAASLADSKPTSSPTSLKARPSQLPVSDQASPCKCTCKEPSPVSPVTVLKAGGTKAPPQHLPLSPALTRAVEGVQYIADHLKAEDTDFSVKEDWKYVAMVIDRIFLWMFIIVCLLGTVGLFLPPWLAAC
T1 sequence (P12390 25-500): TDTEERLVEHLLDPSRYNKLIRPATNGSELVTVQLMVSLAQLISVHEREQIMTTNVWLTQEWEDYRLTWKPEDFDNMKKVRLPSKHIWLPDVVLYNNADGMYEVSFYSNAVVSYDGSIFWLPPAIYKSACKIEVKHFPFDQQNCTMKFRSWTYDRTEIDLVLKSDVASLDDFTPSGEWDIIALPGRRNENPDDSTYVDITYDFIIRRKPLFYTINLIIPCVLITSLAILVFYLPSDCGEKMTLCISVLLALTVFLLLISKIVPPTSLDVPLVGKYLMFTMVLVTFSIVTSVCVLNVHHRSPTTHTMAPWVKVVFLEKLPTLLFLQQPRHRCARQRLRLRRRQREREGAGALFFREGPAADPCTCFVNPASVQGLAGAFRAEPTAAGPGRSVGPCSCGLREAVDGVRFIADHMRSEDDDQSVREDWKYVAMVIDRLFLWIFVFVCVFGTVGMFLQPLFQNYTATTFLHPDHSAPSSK

[2] = biological target: T2, Rat Striatal Nicotinic Receptors ([^3H]MLA binding sites; α7) (Rattus norvegicus, UniProt Q05941); test: Inhibition of [^3H]MLA (methyllycaconitine) binding; conditions: full concentration effect; [^3H]MLA; nonspecific S-nicotine; rat brain membranes; read-out: [^3H]MLA binding, Ki
T2 construct: Whole brain, excluding cortex and cerebellum, was homogenized in 20 vol of ice-cold buffer; from tissue; host or cells: rat brain membranes (whole brain excluding cortex and cerebellum)
T2 sequence (Q05941 23-502): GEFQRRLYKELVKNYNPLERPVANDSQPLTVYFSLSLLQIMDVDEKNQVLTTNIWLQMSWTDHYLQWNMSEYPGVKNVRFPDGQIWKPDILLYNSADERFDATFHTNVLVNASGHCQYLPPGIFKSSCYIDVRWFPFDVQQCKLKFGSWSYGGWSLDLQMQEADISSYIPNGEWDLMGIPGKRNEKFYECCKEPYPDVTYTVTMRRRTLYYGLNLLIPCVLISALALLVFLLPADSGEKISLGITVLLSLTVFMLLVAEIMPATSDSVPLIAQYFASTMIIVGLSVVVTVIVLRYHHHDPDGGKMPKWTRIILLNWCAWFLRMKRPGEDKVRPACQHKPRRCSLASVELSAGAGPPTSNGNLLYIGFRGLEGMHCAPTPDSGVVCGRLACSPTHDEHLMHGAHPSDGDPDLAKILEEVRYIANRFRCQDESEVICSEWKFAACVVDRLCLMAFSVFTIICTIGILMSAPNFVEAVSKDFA
Procedure, shortened: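 Rat brain membranes were washed by repeated centrifugation at 25,000 g, with a 10 min incubation at 37° C. in between. Samples of 250 μl, containing 100-140 μg of membrane protein, 3 nM [^3H]-methyllycaconitine and test analog in 50 mM Tris assay buffer, were incubated in 96-well plates for 60 min at room temperature. Nonspecific binding was defined with 10 μM S-nicotine. Bound radioactivity was collected on polyethylenimine-soaked GF/B filter plates and counted on a TopCount.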

[3] = tested on: nicotinic receptors mediating S-nicotine-evoked [^3H]DA release in rat striatal slices; test: Inhibition of S-nicotine-evoked [^3H]dopamine release from superfused rat striatal slices; format: cell-based; conditions: 1 h; 100 nM analog superfused 60 min before NIC 10 μM; rat striatal slices; read-out: [^3H]DA release, % inhibition of S-nicotine-evoked release
Procedure, shortened: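 Superfused rat striatal slices preloaded with 0.1 μM [3H]DA, in Krebs buffer with nomifensine and pargyline (10 μM each), 34 °C. Analogs (100 nM) given 60 min before 10 μM S-nicotine; tritium overflow by scintillation, inhibition expressed as percent of nicotine-evoked overflow without analog; full concentration-effect curves where […] given.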

Structure (SMILES) | Ki [1] | Ki [2] | inhibition at 0.1 µM [3]
Cc1ccc[n+](CCC#Cc2ccc(C#CCC[n+]3cccc(C)c3)cc2)c1 [Example 97, N,N′-[(1,4-phenylene)-bis-(4-butynyl)]-bis-(3-methyl-pyridinium)dibromide] | 2.75 ± 0.4 µM | > 100 µM | 21%
Cc1cc[n+](CCC#Cc2ccc(C#CCC[n+]3ccc(C)cc3)cc2)cc1 [Example 98, N,N′-[(1,4-phenylene)-bis-(4-butynyl)]-bis-(4-methyl-pyridinium)dibromide] | 8.5 µM | > 100 µM | 29%
C(#Cc1ccc(C#CCC[n+]2ccc3c(c2)CCCC3)cc1)CC[n+]1ccc2c(c1)CCCC2 [Example 99, N,N′-[(1,4-phenylene)-bis-(4-butynyl)]-bis-(5,6,7,8-tetrahydroisoquiolinium)dibromide] | 8.04 µM | 0.87 µM | 14%
